A short description of data set [1]: Determination of blood and brain tissue binding (equilibrium dialysis). The data set is classed as in vitro ADME, Sprague Dawley rat. Particulars: Sprague Dawley, 5 h at 37° C.; for fraction unbound at 5 h, 5 micromolar: 1:2 (w/v) in artificial CSF, rat brain homogenate, read-out: % FU Brain; for fraction unbound at 5 h, 0.5 micromolar: whole blood diluted 1:1 (v/v) with isotonic phosphate buffer, rat whole blood, read-out: % FU Blood. The method, then: Sprague Dawley rat whole blood, collected on the week of the experiment using K3-EDTA as an anti-coagulant, is diluted with isotonic phosphate buffer 1:1 (v/v). Sprague Dawley rat whole brain, stored frozen at −20° C., is thawed and homogenised in artificial cerebrospinal fluid (CSF) 1:2 (w/v).
An appropriate amount of test compound is dissolved in DMSO to give a 10 millimolar solution. Further dilutions, to obtain a 166.7 micromolar working solution are then prepared using 50% acetonitrile in MilliQ water. This working solution is used to spike the blood to obtain a final concentration of 0.5 micromolar in whole blood. Similarly, the working solution is used to spike brain samples to obtain a final concentration of 5 micromolar in whole brain. From these spiked blood and brain preparations, control samples (n=3), are immediately extracted and used to calculate the initial recovery of the test items.
150 microL of compound-free buffer (isotonic phosphate buffer for blood or artificial CSF buffer for brain) is dispensed in one half-well and 150 microL of spiked matrix (blood or brain) is loaded in the other half-well, with the two halves separated by a semi-permeable membrane. After an equilibration period of 5 h at 37° C., 50 microL of dialysed matrix (blood or brain) is added to 50 microL of corresponding compound-free buffer, and vice-versa for buffer, such that the volume of buffer to matrix (blood or brain) remains the same. Samples are then extracted by protein precipitation with 300 microL of acetonitrile containing rolipram (control for positive ionization mode) or diclofenac (control for negative ionization mode) as internal standards and centrifuged for 10 min at 3000 rpm. Supernatants are collected (100 microL), diluted with 27% AcN in MilliQ water (200 microL) and then injected into an HPLC-MS/MS or UPLC-MS/MS system to determine the concentration of test compound present.
Blood and brain tissue binding are then determined using the following formulas:
where Afu=apparent fraction unbound; Buffer=analyte/internal standard ratio determined in the buffer compartment; Blood=analyte/internal standard ratio determined in the blood compartment; Brain=analyte/internal standard ratio determined in the brain compartment.
where: fucr=Fraction unbound corrected; D=matrix dilution factor (D=2 for blood and D=3 for brain). then: […]

Data set [2] in a line: In vitro metabolic stability, rat liver microsomes. The class given is in vitro ADME. The note with it: CLint expressed as mL/min/g liver. How it is done: (§1) The objective of this study was to determine metabolic stability of test items in rat and human liver microsomes. Verapamil and dextromethorphan were used as positive controls for microsomal incubation.
(§2) Incubation medium was prepared by combining 11.2 mL of potassium phosphate monobasic and 38.8 mL of potassium phosphate dibasic, diluted to 1 L with water. Cryopreserved microsomes were thawed and kept on ice until use. Microsomes were then diluted in incubation to a protein concentration of 0.56 mg/mL. […]
(§3) NADPH regenerating system solution was prepared by dissolving 1.7 mg of NADP, 7.8 mg of G6P and 6 units of G6P-Dehydrogenase in 1 mL of 2% sodium bicarbonate solution (prepared by dissolving 20 g of NaHCO3 in 1 L of water).
(§4) Test compounds were separately dissolved in DMF to obtain 10 mM stock solutions that were further diluted in water/acetonitrile 50/50 (v/v) to obtain the corresponding 50 μM working solutions. Verapamil and dextromethorphan were dissolved in DMF in order to obtain a 10 mM verapamil solution and 10 mM dextromethorphan solution. These solutions were then diluted in the incubation medium in order to obtain a 50 μM verapamil working solution and a 50 μM dextromethorphan working solution.
(§5) 800 μL-aliquots of NADPH regenerating system were pre-warmed at 37° C. for 5 minutes. 5 μL of 50 µM test compounds, verapamil or dextromethorphan were added to 445 μL of the 0.56 mg/mL microsomes solution and the incubation mixture was pre-warmed in a 96 deep well 2 mL plate (incubation plate) at 37° C. for 5 minutes. The incubation reactions were initiated by adding 50 μL of pre-warmed NADPH regenerating system to the incubation mixtures. 50 μL aliquots were taken from incubation mixtures at: 0, 3, 6, 9, 15, and 30 minutes and the reactions were stopped by adding 100 μL of aceronitrile with the corresponding internal standard. Samples were then diluted with 120 μL of water (final organic solvent percentage at 37%) and centrifuged at 3000 rpm for 10 minutes, prior the LC-MS/MS analysis.
(§6) Metabolic stability was calculated from the peak area ratio of the remaining test compound with internal standard versus time. The intrinsic clearance (CLint) was determined from the first order elimination constant k (min^−1) (obtained from GraphPad by plotting the natural logarithm of the peak area ratio of the remaining test item with internal standard versus time), using the actual volume of the incubation V (mL), the amount of hepatocytes in the incubation M (million cells) and the hepatocellularity number per a liver Hn (120 for human).

A short description of data set [3]: In vitro metabolic stability, human liver microsomes. The data set is classed as in vitro ADME. The note with it: CLint expressed as mL/min/g liver. The method, then:
as §1, §2, §3, §4, §5, §6

Regarding `Cc1ccc(Oc2ccc(-n3c(=O)[nH]c4cccnc43)cn2)cc1OC(F)(F)F` [Example 4, 3-[6-[4-methyl-3-(trifluoromethoxy)phenoxy]-3-pyridyl]-1H-imidazo[4,5-b]pyridin-2-one], in data set [1], the fraction unbound at 5 h, 5 micromolar was determined as 0.003 and the fraction unbound at 5 h, 0.5 micromolar turned out to be 0.002. The molecule also returned a Cli rat in data set [2] of 0.9 mL/min/g. This molecule showed a Cli human in data set [3] of 0.7 mL/min/g.

As to `O=c1[nH]c2cccnc2n1-c1cnc(Oc2cccc(OC(F)(F)F)c2)nc1` [Example 17, 3-[2-[3-(trifluoromethoxy)phenoxy]pyrimidin-5-yl]-1H-imidazo[4,5-b]pyridin-2-one], in data set [1], the fraction unbound at 5 h, 5 micromolar is 0.016 and the fraction unbound at 5 h, 0.5 micromolar is 0.016. Besides, the Cli rat in data set [2] is less than 0.5 mL/min/g. In data set [3], the Cli human is given as less than 0.5 mL/min/g.

With `Cc1ccc(Oc2ncc(-n3c(=O)[nH]c4cccnc43)cn2)cc1OC(F)(F)F` [Example 32, 3-[2-[4-methyl-3-(trifluoromethoxy)phenoxy]pyrimidin-5-yl]-1H-imidazo[4,5-b]pyridin-2-one], in data set [1], the fraction unbound at 5 h, 5 micromolar came to 0.006 and the fraction unbound at 5 h, 0.5 micromolar turned out to be 0.01. Besides, the Cli rat in data set [2] was determined as 0.9 mL/min/g. The molecule also showed a Cli human in data set [3] of 0.8 mL/min/g.
